Measured values reported in paper PMC6891286, “Towards the Development of an In vivo Chemical Probe for Cyclin G Associated Kinase (GAK)” (Molecules, 2019).

Key:
Assay in all cases: KINOMEscan
Format in all cases: binding
IGF1R = biological target: T1, IGF1R (Homo sapiens, UniProt P08069); settings: 35 at 1 µM; read-out: % inhibition
T1 construct: purchased Eurofins DiscoverX (KINOMEscan)
Experimental: (§1) KinomeScan Assay on 35 was performed as previously described at EuroFins DiscoverX (Fremont, CA, USA).

YANK3 = biological target: T2, YANK3 (Homo sapiens, UniProt Q86UX6); settings: 35 at 1 µM; read-out: % inhibition
T2 construct: purchased EuroFins DiscoverX (Fremont, CA, USA)
Experimental: as §1

HCK = biological target: T3, HCK (Homo sapiens, UniProt P08631); settings: 35 at 1 µM; read-out: % inhibition
T3 construct: purchased Eurofins DiscoverX (KINOMEscan)
Experimental: as §1

RET(V804L) = biological target: T4, RET(V804L) (Homo sapiens, UniProt P07949, V804L); settings: 35 at 1 µM; read-out: % inhibition
T4 construct: purchased Eurofins DiscoverX (KINOMEscan)
Experimental: as §1

[1] = biological target: T5, RPS6KA5(Kin.Dom.1-N-terminal) (Homo sapiens, UniProt O75582); settings: 35 at 1 µM; read-out: % inhibition
T5 construct: RPS6KA5(Kin.Dom.1-N-terminal); purchased Eurofins DiscoverX (KINOMEscan)
Experimental: as §1

CAMK2D = biological target: T6, CAMK2D (Homo sapiens, UniProt Q13557); settings: 35 at 1 µM; read-out: % inhibition
T6 construct: purchased Eurofins DiscoverX (KINOMEscan)
Experimental: as §1

TNIK = biological target: T7, TNIK (Homo sapiens, UniProt Q9UKE5); settings: 35 at 1 µM; read-out: % inhibition
T7 construct: purchased Eurofins DiscoverX (KINOMEscan)
Experimental: as §1

YES = biological target: T8, YES (Homo sapiens, UniProt P07947); settings: 35 at 1 µM; read-out: % inhibition
T8 construct: purchased EuroFins DiscoverX (Fremont, CA, USA)
Experimental: as §1

LOK = biological target: T9, LOK (Homo sapiens, UniProt O94804); settings: 35 at 1 µM; read-out: % inhibition
T9 construct: purchased Eurofins DiscoverX (KINOMEscan)
Experimental: as §1

FLT3(D835Y) = biological target: T10, FLT3(D835Y) (Homo sapiens, UniProt P36888, D835Y); settings: 35 at 1 µM; read-out: % inhibition
T10 construct: purchased Eurofins DiscoverX (KINOMEscan)
Experimental: as §1

ERK2 = biological target: T11, ERK2 (Homo sapiens, UniProt P28482); settings: 35 at 1 µM; read-out: % inhibition
T11 construct: purchased Eurofins DiscoverX (KINOMEscan)
Experimental: as §1

[2] = biological target: T12, ABL1(Y253F)-phosphorylated (Homo sapiens, UniProt P00519, Y253F); settings: 35 at 1 µM; read-out: % inhibition
T12 construct: purchased Eurofins DiscoverX (KINOMEscan)
Experimental: as §1

EPHB2 = biological target: T13, EPHB2 (Homo sapiens, UniProt P29323); settings: 35 at 1 µM; read-out: % inhibition
T13 construct: purchased Eurofins DiscoverX (KINOMEscan)
Experimental: as §1

NEK11 = biological target: T14, NEK11 (Homo sapiens, UniProt Q8NG66); settings: 35 at 1 µM; read-out: % inhibition
T14 construct: purchased Eurofins DiscoverX (KINOMEscan)
Experimental: as §1

LIMK1 = biological target: T15, LIMK1 (Homo sapiens, UniProt P53667); settings: 35 at 1 µM; read-out: % inhibition
T15 construct: purchased Eurofins DiscoverX (KINOMEscan)
Experimental: as §1

MAP3K4 = biological target: T16, MAP3K4 (Homo sapiens, UniProt Q9Y6R4); settings: 35 at 1 µM; read-out: % inhibition
T16 construct: purchased Eurofins DiscoverX (KINOMEscan)
Experimental: as §1

PFTK1 = biological target: T17, PFTK1 (Homo sapiens, UniProt O94921); settings: 35 at 1 µM; read-out: % inhibition
T17 construct: purchased Eurofins DiscoverX (KINOMEscan)
Experimental: as §1

STK39 = biological target: T18, STK39 (Homo sapiens, UniProt Q9UEW8); settings: 35 at 1 µM; read-out: % inhibition
T18 construct: purchased Eurofins DiscoverX (KINOMEscan)
Experimental: as §1

SRPK1 = biological target: T19, SRPK1 (Homo sapiens, UniProt Q96SB4); settings: 35 at 1 µM; read-out: % inhibition
T19 construct: purchased Eurofins DiscoverX (KINOMEscan)
Experimental: as §1

[3] = biological target: T20, RSK2(Kin.Dom.1-N-terminal) (Homo sapiens, UniProt P51812); settings: 35 at 1 µM; read-out: % inhibition
T20 construct: RSK2(Kin.Dom.1-N-terminal); purchased Eurofins DiscoverX (KINOMEscan)
Experimental: as §1

MEK5 = biological target: T21, MEK5 (Homo sapiens, UniProt Q13163)
T21 construct: purchased Eurofins DiscoverX (KINOMEscan)
Experimental: as §1

EPHB4 = biological target: T22, EPHB4 (Homo sapiens, UniProt P54760); settings: 35 at 1 µM; read-out: % inhibition
T22 construct: purchased Eurofins DiscoverX (KINOMEscan)
Experimental: as §1

WNK3 = biological target: T23, WNK3 (Homo sapiens, UniProt Q9BYP7); settings: 35 at 1 µM; read-out: % inhibition
T23 construct: purchased Eurofins DiscoverX (KINOMEscan)
Experimental: as §1

TGFBR2 = biological target: T24, TGFBR2 (Homo sapiens, UniProt P37173)
T24 construct: purchased Eurofins DiscoverX (KINOMEscan)
Experimental: as §1

EGFR(S752-I759del) = biological target: T25, EGFR(S752-I759del) (Homo sapiens, UniProt P00533, DEL752-759); settings: 35 at 1 µM; read-out: % inhibition
T25 construct: purchased Eurofins DiscoverX (KINOMEscan)
Experimental: as §1

PRKD3 = biological target: T26, PRKD3 (Homo sapiens, UniProt O94806); settings: 35 at 1 µM; read-out: % inhibition
T26 construct: purchased Eurofins DiscoverX (KINOMEscan)
Experimental: as §1

MKNK2 = biological target: T27, MKNK2 (Homo sapiens, UniProt Q9HBH9); settings: 35 at 1 µM; read-out: % inhibition
T27 construct: purchased Eurofins DiscoverX (KINOMEscan)
Experimental: as §1

RET(V804M) = biological target: T28, RET(V804M) (Homo sapiens, UniProt P07949, V804M); settings: 35 at 1 µM; read-out: % inhibition
T28 construct: purchased Eurofins DiscoverX (KINOMEscan)
Experimental: as §1

ABL1-phosphorylated = biological target: T29, ABL1-phosphorylated (Homo sapiens, UniProt P00519); settings: 35 at 1 µM; read-out: % inhibition
T29 construct: purchased Eurofins DiscoverX (KINOMEscan)
Experimental: as §1

ERK5 = biological target: T30, ERK5 (Homo sapiens, UniProt Q13164); settings: 35 at 1 µM; read-out: % inhibition
T30 construct: purchased Eurofins DiscoverX (KINOMEscan)
Experimental: as §1

CSNK1G1 = biological target: T31, CSNK1G1 (Homo sapiens, UniProt Q9HCP0); settings: 35 at 1 µM; read-out: % inhibition
T31 construct: purchased Eurofins DiscoverX (KINOMEscan)
Experimental: as §1

CDC2L5 = biological target: T32, CDC2L5 (Homo sapiens, UniProt Q14004); settings: 35 at 1 µM; read-out: % inhibition
T32 construct: purchased Eurofins DiscoverX (KINOMEscan)
Experimental: as §1

DAPK1 = biological target: T33, DAPK1 (Homo sapiens, UniProt P53355); settings: 35 at 1 µM; read-out: % inhibition
T33 construct: purchased Eurofins DiscoverX (KINOMEscan)
Experimental: as §1

WNK1 = biological target: T34, WNK1 (Homo sapiens, UniProt Q9H4A3); settings: 35 at 1 µM; read-out: % inhibition
T34 construct: purchased EuroFins DiscoverX (Fremont, CA, USA)
Experimental: as §1

[4] = 35 at 1 µM, read-out: % inhibition

T24 sequence (P37173 23-567): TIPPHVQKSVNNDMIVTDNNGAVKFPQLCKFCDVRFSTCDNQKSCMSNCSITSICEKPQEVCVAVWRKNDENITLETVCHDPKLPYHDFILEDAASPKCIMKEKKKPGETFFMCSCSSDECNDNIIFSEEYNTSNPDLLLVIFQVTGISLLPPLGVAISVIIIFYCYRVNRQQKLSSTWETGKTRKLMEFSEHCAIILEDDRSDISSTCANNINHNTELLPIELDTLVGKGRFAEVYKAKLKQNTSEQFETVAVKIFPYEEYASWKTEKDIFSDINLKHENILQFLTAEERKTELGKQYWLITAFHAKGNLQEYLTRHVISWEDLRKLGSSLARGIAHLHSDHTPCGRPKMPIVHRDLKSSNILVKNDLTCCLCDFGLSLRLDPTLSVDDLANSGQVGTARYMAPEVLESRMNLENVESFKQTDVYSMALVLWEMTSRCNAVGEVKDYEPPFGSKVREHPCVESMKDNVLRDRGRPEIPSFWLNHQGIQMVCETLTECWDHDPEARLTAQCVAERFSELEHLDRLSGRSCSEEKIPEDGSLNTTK
T21 sequence (Q13163 whole entry): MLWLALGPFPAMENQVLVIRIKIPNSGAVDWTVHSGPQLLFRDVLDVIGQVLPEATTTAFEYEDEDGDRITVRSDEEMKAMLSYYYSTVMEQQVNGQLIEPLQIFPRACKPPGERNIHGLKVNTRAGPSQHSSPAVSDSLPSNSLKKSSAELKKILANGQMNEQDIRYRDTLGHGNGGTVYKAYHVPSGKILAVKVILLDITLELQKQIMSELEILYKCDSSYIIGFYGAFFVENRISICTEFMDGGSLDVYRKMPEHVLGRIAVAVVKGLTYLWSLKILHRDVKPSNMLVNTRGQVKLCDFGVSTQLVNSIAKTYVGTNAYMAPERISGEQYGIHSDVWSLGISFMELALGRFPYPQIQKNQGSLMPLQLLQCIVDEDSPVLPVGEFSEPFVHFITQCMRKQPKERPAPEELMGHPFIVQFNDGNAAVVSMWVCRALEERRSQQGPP
T20 sequence (P51812 68-397 limits assumed): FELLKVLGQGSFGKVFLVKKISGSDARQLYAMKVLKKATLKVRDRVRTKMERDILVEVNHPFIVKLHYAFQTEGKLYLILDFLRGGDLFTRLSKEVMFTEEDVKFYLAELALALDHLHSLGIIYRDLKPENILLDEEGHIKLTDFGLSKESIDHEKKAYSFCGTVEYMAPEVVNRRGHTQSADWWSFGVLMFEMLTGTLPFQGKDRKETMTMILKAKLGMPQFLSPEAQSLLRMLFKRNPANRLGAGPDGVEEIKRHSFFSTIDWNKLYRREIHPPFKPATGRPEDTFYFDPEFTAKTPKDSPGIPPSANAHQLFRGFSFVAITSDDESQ
T23 sequence (Q9BYP7 whole entry): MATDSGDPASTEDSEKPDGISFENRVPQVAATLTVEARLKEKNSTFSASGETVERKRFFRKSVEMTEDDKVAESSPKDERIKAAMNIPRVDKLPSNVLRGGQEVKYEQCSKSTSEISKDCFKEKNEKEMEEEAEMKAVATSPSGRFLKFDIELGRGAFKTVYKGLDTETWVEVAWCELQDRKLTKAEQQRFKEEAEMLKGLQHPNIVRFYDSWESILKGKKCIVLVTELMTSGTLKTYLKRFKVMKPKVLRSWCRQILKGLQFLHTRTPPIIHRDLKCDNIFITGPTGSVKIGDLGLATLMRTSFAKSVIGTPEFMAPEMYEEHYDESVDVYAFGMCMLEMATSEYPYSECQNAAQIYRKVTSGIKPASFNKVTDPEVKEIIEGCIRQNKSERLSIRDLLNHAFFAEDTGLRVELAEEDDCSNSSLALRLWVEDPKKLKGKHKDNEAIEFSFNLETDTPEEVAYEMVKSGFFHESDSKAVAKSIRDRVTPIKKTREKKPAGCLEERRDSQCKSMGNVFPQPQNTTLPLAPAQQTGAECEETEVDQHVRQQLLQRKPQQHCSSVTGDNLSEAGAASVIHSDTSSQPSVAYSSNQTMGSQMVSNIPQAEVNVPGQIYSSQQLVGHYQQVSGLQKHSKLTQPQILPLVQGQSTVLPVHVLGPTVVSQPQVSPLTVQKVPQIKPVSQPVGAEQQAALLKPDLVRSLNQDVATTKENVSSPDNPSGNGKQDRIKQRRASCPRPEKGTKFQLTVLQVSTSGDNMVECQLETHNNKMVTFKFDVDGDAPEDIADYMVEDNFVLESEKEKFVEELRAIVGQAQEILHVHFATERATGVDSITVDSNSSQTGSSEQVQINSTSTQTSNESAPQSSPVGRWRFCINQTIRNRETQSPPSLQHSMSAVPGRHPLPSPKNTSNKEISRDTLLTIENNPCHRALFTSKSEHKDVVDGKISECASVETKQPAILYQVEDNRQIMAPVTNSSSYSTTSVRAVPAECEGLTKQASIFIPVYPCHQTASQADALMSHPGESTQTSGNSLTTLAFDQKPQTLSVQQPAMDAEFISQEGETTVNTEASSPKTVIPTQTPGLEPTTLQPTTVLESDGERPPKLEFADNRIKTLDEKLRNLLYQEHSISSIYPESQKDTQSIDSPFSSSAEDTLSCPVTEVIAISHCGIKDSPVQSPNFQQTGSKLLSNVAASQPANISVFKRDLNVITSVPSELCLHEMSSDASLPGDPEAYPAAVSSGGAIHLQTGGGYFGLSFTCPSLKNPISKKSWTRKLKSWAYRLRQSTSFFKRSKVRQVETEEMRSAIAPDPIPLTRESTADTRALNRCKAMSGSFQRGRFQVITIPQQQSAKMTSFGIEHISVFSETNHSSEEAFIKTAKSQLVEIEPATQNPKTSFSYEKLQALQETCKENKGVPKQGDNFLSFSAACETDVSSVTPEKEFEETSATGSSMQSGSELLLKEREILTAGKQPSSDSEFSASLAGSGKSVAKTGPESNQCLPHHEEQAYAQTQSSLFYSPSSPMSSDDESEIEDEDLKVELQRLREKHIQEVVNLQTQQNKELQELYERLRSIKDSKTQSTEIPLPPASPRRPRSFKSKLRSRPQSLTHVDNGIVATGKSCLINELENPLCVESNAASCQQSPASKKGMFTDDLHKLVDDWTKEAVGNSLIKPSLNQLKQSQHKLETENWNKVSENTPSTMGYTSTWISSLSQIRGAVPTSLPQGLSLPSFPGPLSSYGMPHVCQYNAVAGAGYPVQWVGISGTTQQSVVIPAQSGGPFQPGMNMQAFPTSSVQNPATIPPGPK
T33 sequence (P53355 whole entry): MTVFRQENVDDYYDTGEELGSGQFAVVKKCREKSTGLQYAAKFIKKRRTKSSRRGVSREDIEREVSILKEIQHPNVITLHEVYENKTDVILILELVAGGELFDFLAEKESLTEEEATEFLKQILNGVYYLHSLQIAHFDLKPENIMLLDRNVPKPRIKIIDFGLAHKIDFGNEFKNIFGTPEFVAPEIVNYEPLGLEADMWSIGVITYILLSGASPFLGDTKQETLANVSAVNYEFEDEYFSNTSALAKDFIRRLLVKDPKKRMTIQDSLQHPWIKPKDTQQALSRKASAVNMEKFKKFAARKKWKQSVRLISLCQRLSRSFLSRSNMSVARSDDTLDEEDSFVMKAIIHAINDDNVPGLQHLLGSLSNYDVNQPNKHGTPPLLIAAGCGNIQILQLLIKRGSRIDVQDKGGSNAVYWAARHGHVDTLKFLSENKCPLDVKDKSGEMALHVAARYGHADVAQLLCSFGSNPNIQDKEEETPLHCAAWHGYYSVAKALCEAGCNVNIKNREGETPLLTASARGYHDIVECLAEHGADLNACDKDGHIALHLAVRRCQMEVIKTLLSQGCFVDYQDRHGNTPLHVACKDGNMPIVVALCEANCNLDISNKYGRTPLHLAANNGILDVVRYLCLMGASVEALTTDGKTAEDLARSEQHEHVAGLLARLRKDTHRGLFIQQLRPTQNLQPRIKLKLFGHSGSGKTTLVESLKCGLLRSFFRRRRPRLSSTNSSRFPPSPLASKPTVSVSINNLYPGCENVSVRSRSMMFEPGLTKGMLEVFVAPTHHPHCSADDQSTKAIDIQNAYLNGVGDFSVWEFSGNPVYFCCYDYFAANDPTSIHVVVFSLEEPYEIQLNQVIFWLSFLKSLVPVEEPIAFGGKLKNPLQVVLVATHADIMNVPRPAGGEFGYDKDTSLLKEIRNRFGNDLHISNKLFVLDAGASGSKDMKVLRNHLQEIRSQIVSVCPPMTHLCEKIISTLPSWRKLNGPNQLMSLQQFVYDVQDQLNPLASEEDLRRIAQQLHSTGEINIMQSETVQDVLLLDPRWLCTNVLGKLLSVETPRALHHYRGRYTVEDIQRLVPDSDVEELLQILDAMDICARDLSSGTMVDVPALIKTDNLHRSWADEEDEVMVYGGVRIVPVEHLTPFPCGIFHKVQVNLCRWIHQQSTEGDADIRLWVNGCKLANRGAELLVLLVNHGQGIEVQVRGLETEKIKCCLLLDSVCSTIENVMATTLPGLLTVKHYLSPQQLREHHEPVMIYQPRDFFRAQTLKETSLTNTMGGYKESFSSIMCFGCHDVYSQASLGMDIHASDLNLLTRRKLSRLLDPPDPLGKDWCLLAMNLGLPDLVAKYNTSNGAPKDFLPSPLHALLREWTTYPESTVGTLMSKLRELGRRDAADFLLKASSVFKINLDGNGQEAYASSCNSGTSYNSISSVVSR
T5 sequence (O75582 1-387 limits assumed): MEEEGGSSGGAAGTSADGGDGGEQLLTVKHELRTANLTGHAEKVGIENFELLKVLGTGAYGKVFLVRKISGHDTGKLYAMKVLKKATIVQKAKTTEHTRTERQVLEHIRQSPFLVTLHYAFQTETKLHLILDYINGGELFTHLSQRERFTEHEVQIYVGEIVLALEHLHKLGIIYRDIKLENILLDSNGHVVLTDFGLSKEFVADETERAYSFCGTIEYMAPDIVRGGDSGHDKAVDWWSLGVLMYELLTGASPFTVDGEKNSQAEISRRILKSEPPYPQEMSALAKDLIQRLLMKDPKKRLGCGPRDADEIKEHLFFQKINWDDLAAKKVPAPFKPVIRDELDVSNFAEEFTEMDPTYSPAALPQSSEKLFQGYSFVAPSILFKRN

Compound `Brc1ccc2nccc(Nc3ccc4cn[nH]c4c3)c2c1` [Compound 35, 6-Bromo-N-(1H-indazol-6-yl)quinolin-4-amine] has an activity at 1 µM (IGF1R) of 100%, an activity at 1 µM (YANK3) of 100% and an activity at 1 µM (HCK) of 100%. It also gave an activity at 1 µM (RET(V804L)) of 97%, an activity at 1 µM [1] of 100% and an activity at 1 µM (CAMK2D) of 100%. The activity at 1 µM (TNIK) was 97%, the activity at 1 µM (YES) was 100% and the activity at 1 µM (LOK) was 100%. The activity at 1 µM (FLT3(D835Y)) was 100%, the activity at 1 µM (ERK2) was 100% and the activity at 1 µM [2] was 100%. The activity at 1 µM (EPHB2) was 100%, the activity at 1 µM (NEK11) was 100% and the activity at 1 µM (LIMK1) was 100%. It also gave an activity at 1 µM (MAP3K4) of 100%, an activity at 1 µM (PFTK1) of 69% and an activity at 1 µM (STK39) of 100%. For the same compound, the activity at 1 µM (SRPK1) was 100%, the activity at 1 µM [3] was 90% and the activity at 1 µM (MEK5; [4]) was 11%. For the same compound, the inhibition at 1 µM (MEK5; KinomeScan, screened at 1 μM, read-out: kinases inhibited at 1 μM: MEK5) was 89%, the activity at 1 µM (EPHB4) was 100% and the activity at 1 µM (WNK3) was 92%. The activity at 1 µM (TGFBR2; [4]) was 18%, the inhibition at 1 µM (TGFBR2; KinomeScan, screened at 1 μM, read-out: kinases inhibited at 1 μM: TGFBR2) was 82% and the activity at 1 µM (EGFR(S752-I759del)) was 89%. The activity at 1 µM (PRKD3) was 100%, the activity at 1 µM (MKNK2) was 63% and the activity at 1 µM (RET(V804M)) was 100%. It also gave an activity at 1 µM (ABL1-phosphorylated) of 46%, an activity at 1 µM (ERK5) of 100% and an activity at 1 µM (CSNK1G1) of 100%. For the same compound, the activity at 1 µM (CDC2L5) was 73%, the activity at 1 µM (DAPK1) was 100% and the activity at 1 µM (WNK1) was 100%.
